US4683245A, “Laevorotatory antipode of moprolol as an antihypertensive” (SIMES S.p.A. Societa Italiana Medicinali e Sintetici, priority 1979, dated 1987)
Where two headings read alike, the source gives them in different places.

Assays:
[1] = test system: adrenergic beta-receptors; assay: Median effective Dose (ED50) in the dog; assay type: in vivo
Source text: The data given in Table I evidence similar toxicity of the three different compounds.
In this regard the following Table II gives the respective data for the three compounds (±); (-); (+).

[2] = test system: spontaneously beating right atrium preparations; assay: chronotropic effect on spontaneously beating right atria from reserpinized guinea-pigs; design: species or system guinea-pig
Experimental: Experiments were carried out on spontaneously beating right atrium preparations taken from the hearts of guinea-pigs of both sexes, weighing 300 to 400 g.
Twenty hrs before sacrifice the animals were injected intramuscularly with reserpine dissolved in 20% ascorbic acid in 2 doses of 2 mg/kg each at 24 hrs distance. An equal number of animals received the reserpine solvent only and were kept as controls.
The preparations were suspended in 10 ml vessels containing Krebs-Henseleitsolution aerated with […] and maintained at a temperature of 35° C.
The right atria were fixed to the vessel base by one end and connected to a transducer of a semiisometric microdynanometer (Basile) by the other end.
Heart rate was recorded directly from the tracing.
All the preparations were subjected to a reset traction of 0.6-0.8 g and allowed to stabilize for 1 hr before starting experiments.
The substances were placed in the vessel in cumulative concentrations. Each concentration was increased by three times as compared with the previous one and a 10 min. interspace was left between concentrations.
The control preparations were made by replacing in the vessel the only solvent (H2 O) in the same volumes as for the drug solutions. The effect excerted by the drug and the solvent on atrial rate was evaluated as per-cent variation as compared with baseline values. The significance of the differences between treated and control animals was assessed by Dunnett's test.
***In order to be able to compare the effect of combined doses of the
enantiomers with those of equal doses of the single enantiomers racemic
moprolol was used in concentration double with respect to the single

[3] = Lethal Dose50 (LD50) in the mouse; assay type: in vivo; details: mouse, in vivo, in the mouse
Source text: (§1) In this regard the following Table I reports the LD50 of the single isomers and of the racemic product.

[4] = test system: adrenergic beta-receptors; assay: inhibition of hemodynamic effects of isoproterenol (beta-receptor stimulation) in anesthetized dogs; assay type: in vivo, dog; details: isoproterenol 0.25 μg/Kg/minute i.v.; for beta-blocking activity (in words): anesthetized dogs, duodenal administration
Source text: In order better to clarify the advantages connected with the use of pharmaceutical compositions according to the present invention, the attached drawings include three diagrams relating to certain experiments conducted in anesthetized dogs. These diagrams concern the inhibition by recemic moprolol, it laevorotatory optical isomer and its dextro-rotatory optical isomer, of certain homodynamic effects due to stimulation of the adrenergic beta-receptors following on intravenous infusion of isoproterenol at a dose of 0.25 μg/Kg/minute.
The curves therein reported refer to the means of the results of three tests for each substance.

[5] = test system: mouse; assay: Lethal Dose50 (LD50) in the mouse; assay type: in vivo
Source text: as §1

[6] = listed as laevorotatory moprolol
[7] = reserpinized guinea-pig right atrium
[8] = Cavia porcellus, read-out: Chronotropic effect (% variation)

COc1ccccc1OCC(O)CNC(C)C (racemic) [Moprolol (±), 1-(o-methoxy-phenoxy)-3-isopropyl-amino-propane-2-ol]
Median effective Dose (ED50) [1]: 0.150 mg/kg weight animal | cardiac action (in words) [2]: cardiac depressant action | activation at 0.01 µM ([2]; Cavia porcellus, column 1 × 10^-8, racemate used in double concentration vs single enantiomers, read-out: Chronotropic effect (% variation)): 0% | LD50 [3]: 712 mg/kg

CC(C)NCC(O)COc1cccc2ccccc12 (single isomer, unassigned) [Moprolol 1-propanolol]
atr. block (preparations blocked / total) ([2]; 1 × 10^-4 M): 4/4 | Chronotropic effect (% variation) ([2]; 1 × 10^-4 M, vs baseline, mean ± S.E.): atr. block | activation at 10 µM ([2]; Cavia porcellus, 1 × 10^-5 M, vs baseline, mean ± S.E., read-out: Chronotropic effect (% variation)): -21.5% | activation at 1 µM ([2]; Cavia porcellus, 1 × 10^-6 M, vs baseline, mean ± S.E., read-out: Chronotropic effect (% variation)): -5.7% | activation at 0.1 µM ([2]; Cavia porcellus, 1 × 10^-7 M, vs baseline, mean ± S.E., read-out: Chronotropic effect (% variation)): -2% | activation at 0.01 µM ([2]; Cavia porcellus, 1 × 10^-8 M, vs baseline, mean ± S.E., read-out: Chronotropic effect (% variation)): -0.5% | activation at 30 µM ([2]; Cavia porcellus, 3 × 10^-5 M, vs baseline, mean ± S.E., read-out: Chronotropic effect (% variation)): -37% | activation at 3 µM ([2]; Cavia porcellus, 3 × 10^-6 M, vs baseline, mean ± S.E., read-out: Chronotropic effect (% variation)): -11.2% | activation at 0.3 µM ([2]; Cavia porcellus, 3 × 10^-7 M, vs baseline, mean ± S.E., read-out: Chronotropic effect (% variation)): -3.5% | activation at 0.03 µM ([2]; Cavia porcellus, 3 × 10^-8 M, vs baseline, mean ± S.E., read-out: Chronotropic effect (% variation)): -0.75% | minimal effective concentration ([2]; Cavia porcellus, reserpinized guinea-pig right atrium, read-out: concentration from which depressant effect on atrial rate starts): ≥ 1 µM | effect on atrial rate (in words) ([2]; reserpinized guinea-pig right atrium, listed as Laevorotatory isomer of propanolol): no stimulant effect but a depressant effect | effect on atrial rate (in words) ([2]; reserpinized guinea-pig right atrium, listed as laevorotatory isomer of propanolol): more marked than that evoked by laevorotatory isomer, dextro-rotatory isomer and racemic moprolol

COc1ccccc1OCC(O)CNC(C)C (single isomer, unassigned) [Moprolol (+)]
Median effective Dose (ED50) [1]: nil | activity at effective dose (in words) [1]: without any activity whatsoever | Chronotropic effect (% variation) ([2]; 1 × 10^-4 M, vs baseline, mean ± S.E., listed as d-moprolol): -37.5% | Chronotropic effect (% variation) ([2]; 1 × 10^-5 M, vs baseline, mean ± S.E., listed as d-moprolol): -7.25% | Chronotropic effect (% variation) ([2]; 1 × 10^-6 M, vs baseline, mean ± S.E., listed as d-moprolol): -2% | Chronotropic effect (% variation) ([2]; 1 × 10^-7 M, vs baseline, mean ± S.E., listed as d-moprolol): -2.7% | Chronotropic effect (% variation) ([2]; 1 × 10^-8 M, vs baseline, mean ± S.E., listed as d-moprolol): -1.25% | Chronotropic effect (% variation) ([2]; 3 × 10^-5 M, vs baseline, mean ± S.E., listed as d-moprolol): -14.7% | Chronotropic effect (% variation) ([2]; 3 × 10^-6 M, vs baseline, mean ± S.E., listed as d-moprolol): -6% | Chronotropic effect (% variation) ([2]; 3 × 10^-7 M, vs baseline, mean ± S.E., listed as d-moprolol): -2.7% | Chronotropic effect (% variation) ([2]; 3 × 10^-8 M, vs baseline, mean ± S.E., listed as d-moprolol): -4% | effect on atrial rate (in words) ([2]; reserpinized guinea-pig right atrium, listed as Dextro-rotatory isomer of moprolol): no stimulant effect in a range of concentrations which have proved to be active for laevorotatory isomer of moprolol. On the contrary, they give rise to a depressant effect | beta-blocking activity (in words) ([4]; listed as dextro-rotatory isomer): practically nil | beta-blocking activity (in words) ([4]; listed as dextrorotatory optical isomer): almost complete lack of beta-blocking activity | toxicity (in words) ([5]; LD50, mouse): same toxicity as the laevorotatory isomer and the racemic form | Lethal Dose50 (LD50) ([5]; in the mouse): 720 mg/kg weight animal

COc1ccccc1OCC(O)CNC(C)C (single isomer, unassigned) [Moprolol (-)]
Median effective Dose (ED50) [1]: 0.0781 mg/kg weight animal | activity relative to the racemic form (times more active) ([1]; effective dose): 2 times | Median effective Dose (ED50) [1, 6]: 0.0781 mg/kg weight animal | cardiac action (in words) [2]: cardiac stimulant action | Chronotropic effect (% variation) ([2]; 1 × 10^-4 M, vs baseline, mean ± S.E., listed as 1-moprolol): -10.8% | Chronotropic effect (% variation) ([2]; 1 × 10^-5 M, vs baseline, mean ± S.E., listed as 1-moprolol): +4% | Chronotropic effect (% variation) ([2]; 1 × 10^-6 M, vs baseline, mean ± S.E., listed as 1-moprolol): +8.8% | Chronotropic effect (% variation) ([2]; 1 × 10^-7 M, vs baseline, mean ± S.E., listed as 1-moprolol): +10.4% | Chronotropic effect (% variation) ([2]; 1 × 10^-8 M, vs baseline, mean ± S.E., listed as 1-moprolol): +8.2% | Chronotropic effect (% variation) ([2]; 3 × 10^-5 M, vs baseline, mean ± S.E., listed as 1-moprolol): +0.2% | Chronotropic effect (% variation) ([2]; 3 × 10^-6 M, vs baseline, mean ± S.E., listed as 1-moprolol): +7.8% | Chronotropic effect (% variation) ([2]; 3 × 10^-7 M, vs baseline, mean ± S.E., listed as 1-moprolol): +10.4% | Chronotropic effect (% variation) ([2]; 3 × 10^-8 M, vs baseline, mean ± S.E., listed as 1-moprolol): +11.4% | concentration range of stimulant effect on atrial rate [2, 7]: 10 to 1000 nM | effect on atrial rate (in words) ([2]; reserpinized guinea-pig right atrium, listed as Laevorotatory isomer of moprolol): causes a stimulant effect on atrial rate | significance (P) of correlation coefficient of dose-dependent inhibition ([4]; 0.25, 0.0625 and 0.125 mg/kg): < 0.01 | beta-blocking activity (in words) ([4]; listed as laevoratatory isomer of moprolol): exactly double that of racemic moprolol | beta-blocking activity (in words) [4, 6]: particularly evident for the laevorotatory form in a dose-dependent manner | LD50 [3]: 605 mg/kg

Cl.NCCc1ccc(O)cc1 [Tyramine HCl]
activation at 0.1 µM [2, 8]: 0% | activation at 0.3 µM [2, 8]: 0% | activation at 1 µM [2, 8]: 0% | activation at 3 µM [2, 8]: 0% | activation at 10 µM [2, 8]: -1 ± 1% | activation at 30 µM [2, 8]: -3% | activation at 100 µM [2, 8]: -3% | effect on atrial rate (in words) [2, 7]: devoid of positive chronotropic effect
